Consider two compounds from US20110086872A1, “Berberine as a selective lung cancer agent and other compositions and methods” (priority 2007, published 2011).

Data set [1] deals with human cancer cell lines tested. Nature of the data set: Cytotoxic activity against panel of human cancer cell lines. The class given is cell-based.
Data set [2] deals with D6 clone of P. falciparum. Particulars: Vennestrom and Klayman, 1988; read-out: literature IC50 against D6 clone of P. falciparum; cited from earlier work.
The subject of data set [3] is Lung, Lu1 human cancer cell line. Conditions: cited from earlier work.
Data set [4] concerns D6 clone of P. falciparum. Nature of the data set: Antimalarial activity, D6 clone. The data set is classed as cell-based. On the procedure: (§1) The plant partitions were evaluated using in vitro bioassays based on a panel of human cancer cell lines: BC, Human Breast; Col2, Human Colon; KB, Human Carcinoma of the Nasopharynx; KBV1, Vinblastine-resistant KB; LNCaP, Hormone-dependent Human Prostate, and ZR75-1, Hormone-dependent Human Breast. These lines represent the main priorities for anticancer screening of the National Cancer Institute and have been well documented (Lin et al., J. Nat. Prod. 56: 22-29 (1993). In addition, samples were evaluated against the HIV-1 reverse transcriptase assay and, if active, against HIV-2 RT assay and a TIBO-resistant HIV-1 strain. Furthermore, some samples were tested for antimalarial activity (Angerhofer, Advances in Natural Products Chemistry, ed. Atta-ur-Rahman, pp 311-329 (1992)).
(§2) Thus, extracts, fractions and isolated compounds of plants were evaluated against three basic disease states: cancer, AIDS and malaria according to the published and established protocols and procedures. […] ((Angerhofer, Advances in Natural Products Chemistry, ed. Atta-ur-Rahman, pp 311-329 (1992), Monks et al., J. Nat'l Cancer Inst. 83: 11, 757-766 (1991), Tan et al., J. Nat. Product 54:143-154 (1991), Tan et al., Biochem. Biophysics. Res. Commun. 185:370-378 (1992), Geran et al., Cancer Chemother. Rep., Part 3, 3: 1-17 (1972), Skehan et al., J. Nat'l Cancer Inst. 82:1107-1112 (1990).) […]

The test system of data set [5] is Breast, BC1 human cancer cell line. Conditions: cited from earlier work.
Data set [6] has as its system Lu1 human lung cancer cell line. Description: Cytotoxic activity against Lu1 cancer cell line. The class given is cell-based. Particulars: pure isolates. On the procedure:
The CHCl3 was fractionated over a silica gel column (5×60 cm, 700 g, 63-200 μm). For the column chromatography, a CHCl3/MeOH gradient solvent system was applied with a gradual increase of the MeOH content. Fourteen fractions were collected based on the similarity of their TLC profiles. The fractions were then evaluated for their cytotoxic activity against Lu1 cancer cell line in order to determine the active fractions. […] (See FIG. 4, Table 2).

For data set [7], the target named is T1, human immunodeficiency virus-1 reverse transcriptase (HIV-1 RT) (Human immunodeficiency virus type 1 group M subtype B, UniProt P03366).
T1 construct: human immunodeficiency virus-1 reverse transcriptase (HIV-1 RT)
The class given is biochemical. Conditions: no unit or quantity printed. As for the experimental part:
as §1
Thus, extracts, fractions and isolated compounds of plants were evaluated against three basic disease states: cancer, AIDS and malaria according to the published and established protocols and procedures. […] ((Angerhofer, Advances in Natural Products Chemistry, ed. Atta-ur-Rahman, pp 311-329 (1992), Monks et al., J. Nat'l Cancer Inst. 83: 11, 757-766 (1991), Tan et al., J. Nat. Product 54:143-154 (1991), Tan et al., Biochem. Biophysics. Res. Commun. 185:370-378 (1992), Geran et al., Cancer Chemother. Rep., Part 3, 3: 1-17 (1972), Skehan et al., J. Nat'l Cancer Inst. 82:1107-1112 (1990).)

The subject of data set [8] is W2 clone of P. falciparum. Particulars: Vennestrom and Klayman, 1988; read-out: literature IC50 against W2 clone of P. falciparum; cited from earlier work.
Data set [9] deals with W2 clone of P. falciparum. Nature of the data set: Antimalarial activity, W2 clone. The data set is classed as cell-based. On the procedure:
as §1, §2

Data set [10] relates to Colon, Col 2 human cancer cell line. Conditions: cited from earlier work.

Where two headings read alike, the source gives them in different places. A value given as a limit tells only on which side of the number the result lay.

One may read the IC50 as the concentration that inhibits the measured activity by half. Consider `COc1ccc2c(c1OC)C(=O)N1CCc3cc4c(cc3C(=O)C21O)OCO4` (racemic) [(±)-Chilenine], for which the half-maximal inhibitory concentration (IC50) in data set [1] (all cell lines of the panel, read-out: IC50 values against all of the human cancer cell lines tested) lay in the range of 15.7 to 33.4 µM.

Regarding `COc1ccc2cc3[n+](cc2c1OC)CCc1cc2c(cc1-3)OCO2` [berberine], the IC50 in data set [2] was 0.42 µM; in data set [3], 25 µM; in [4] (Plasmodium falciparum, D6, read-out: IC50 against D6 clone of P. falciparum), 1.1 µM; in [5], 2.74 µM; in data set [6], 11.9 µM; in [8], 0.44 µM. For the same compound, the 50% inhibitory concentration (IC50) in [1] (Homo sapiens, cancer cell lines other than lung, read-out: IC50 values, other cancer cell lines tested) is above 59.5 µM; in data set [9] (Plasmodium falciparum, W2, read-out: IC50 against W2 clone of P. falciparum), 3.2 µM; in [10], 40 µM. In addition, the “selectivity index (SI), D6” value in data set [4] (D6 clone) is 53.6. Also, in [7], the “anti-HIV activity against HIV-1 RT, value” is 353.3. In addition, the “selectivity index (SI), W2” value in [9] (W2 clone) stood at 18.7.
